The subject of experiment [1] is HL-60. Put plainly: Ability to induce differentiation of human promyelocyte HL-60 cells into monocytes. It is filed as functional. Conditions: read-out: ED50 (the source's name).
Experiment [2] is filed under the species Rattus norvegicus. Put plainly: Intestinal calcium transport at dose 130 (pmol). It counts as functional.
For experiment [3], the species on record is Rattus norvegicus. Put plainly: Intestinal calcium transport at dose 260 (pmol). It counts as functional.
In experiment [4] the test system is HL-60. As to the kind of experiment: Ratio of average ED50 to 1-alpha,25-(OH)2D3 ED50 for differentiation assay. It is filed as functional, Homo sapiens.
The species entered for experiment [5] is Rattus norvegicus. As to the kind of experiment: Bone calcium mobilization in rats maintained on a very low calcium diet at a dose 260 (pmol). It counts as functional, organism-based.
The species entered for experiment [6] is Rattus norvegicus. Put plainly: (§1) Bone calcium mobilization in rats maintained on a very low calcium diet at a dose 130 (pmol). It is filed as functional, organism-based.
The species named for experiment [7] is Rattus norvegicus. The description is as §1. It counts as functional, organism-based. This is another data set of the same source.
In experiment [8] the target is T1, Vitamin D3 receptor (Sus scrofa) (UniProt A3RGC1).
T1 sequence (whole entry): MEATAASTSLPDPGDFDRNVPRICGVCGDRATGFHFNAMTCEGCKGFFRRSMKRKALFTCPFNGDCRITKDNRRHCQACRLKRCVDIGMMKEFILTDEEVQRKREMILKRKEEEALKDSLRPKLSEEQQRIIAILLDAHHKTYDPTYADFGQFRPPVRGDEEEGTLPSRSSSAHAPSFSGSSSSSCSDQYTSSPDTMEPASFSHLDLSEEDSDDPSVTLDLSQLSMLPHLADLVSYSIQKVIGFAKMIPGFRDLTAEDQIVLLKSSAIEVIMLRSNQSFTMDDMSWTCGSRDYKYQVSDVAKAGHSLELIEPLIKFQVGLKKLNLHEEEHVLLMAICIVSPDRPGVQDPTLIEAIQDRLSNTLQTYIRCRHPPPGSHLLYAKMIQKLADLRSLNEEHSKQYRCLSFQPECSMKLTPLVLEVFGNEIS
Put plainly: Binding affinity for porcine intestinal Vitamin D3 receptor (VDR).

Several values for one entry are separate records, joined by “and”; a condition that tells them apart may be missing. Equal values may be shown once.

With `CC=C1[C@H](O)CC(=C/C=C2\CCC[C@]3(C)[C@@H]([C@H](C)CCCC(C)(C)O)CC[C@@H]23)C[C@H]1O` [listing 1 of 3 here], the EC50 in the experiment with HL-60 [1] (Homo sapiens, HL-60) amounted to 2 nM. In addition, the figures for the “Ca2+ transport” value in the experiment filed under Rattus norvegicus [2] and in the experiment listed under Rattus norvegicus [3] were 6.8 and 5, respectively. Besides, the Activity ratio in the experiment on HL-60 [4] amounted to 0.8.
As to `CCC1[C@H](O)CC(=C/C=C2\CCC[C@]3(C)[C@@H]([C@@H](C)CCCC(C)(C)O)CC[C@@H]23)C[C@H]1O` (some centres undefined) [listing 1 of 3 here], the EC50 with HL-60 [1] amounted to 6.3 nM. Besides, the “Ca2+ transport” value in the experiment listed under Rattus norvegicus [3] was 4.1. In addition, the Activity ratio in the experiment on HL-60 [4] amounted to 2.3.
Take `CCC1[C@H](O)CC(=C/C=C2\CCC[C@]3(C)[C@@H]([C@H](C)CCCC(C)(C)O)CC[C@@H]23)C[C@H]1O` (some centres undefined) [listing 1 of 3 here]: the Serum Ca2+ in the experiment listed under Rattus norvegicus [5] was 5 and 5.1.
On to `CC=C1[C@H](O)CC(=C/C=C2\CCC[C@]3(C)[C@@H]([C@H](C)CCCC(C)(C)O)CC[C@@H]23)C[C@H]1O` [listing 2 of 3 here], for which the EC50 with HL-60 [1] was found to be 4 nM. Also, the “Ca2+ transport” value in the experiment listed under Rattus norvegicus [2] was found to be 5.7; in the experiment listed under Rattus norvegicus [3] it was 4.4. Moreover, in the experiment with HL-60 [4], the Activity ratio worked out at 1.6.
For the molecule `CC=C1[C@H](O)CC(=C/C=C2\CCC[C@]3(C)[C@@H]([C@H](C)CCCC(C)(C)O)CC[C@@H]23)C[C@H]1O` [listing 3 of 3 here], the Serum Ca2+ in the experiment listed under Rattus norvegicus [6] was 5.2 and 4.2; in the experiment filed under Rattus norvegicus [5], 4.5 and 4.4.
`CC=C1[C@H](O)CC(=C/C=C2\CCC[C@]3(C)[C@@H]([C@@H](C)CCCC(C)(C)O)CC[C@@H]23)C[C@H]1O` [listing 1 of 3 here]: the EC50 with HL-60 [1] (Homo sapiens, HL-60) turned out to be 0.22 nM. Further, the figures for the “Ca2+ transport” value in the experiment filed under Rattus norvegicus [2] and in the experiment listed under Rattus norvegicus [3] were 5.8 and 9, respectively. For the same molecule, the Activity ratio in the experiment on HL-60 [4] was 0.09.
Take `C=C1/C(=C\C=C2/CCC[C@]3(C)[C@@H]([C@H](C)CCCC(C)(C)O)CC[C@@H]23)C[C@@H](O)C[C@@H]1O` [CALCITRIOL]: the “Ca2+ transport” value in the experiment filed under Rattus norvegicus [2] was 5.5 and 4.9 and 5.2; in the experiment listed under Rattus norvegicus [3] it was 6.5 and 5.9 and 6. Besides, the Serum Ca2+ in the experiment listed under Rattus norvegicus [6] was 5.1; in the experiment listed under Rattus norvegicus [7] it was 5.2 and 5.7; in the experiment listed under Rattus norvegicus [5] it was 5.8 (2×) and 6.4 (2×).
On to `CCC1[C@H](O)CC(=C/C=C2\CCC[C@]3(C)[C@@H]([C@@H](C)CCCC(C)(C)O)CC[C@@H]23)C[C@H]1O` (some centres undefined) [listing 2 of 3 here], for which, in the experiment on HL-60 [1], the EC50 came out at 0.13 nM. In the experiment on HL-60 [4], the Activity ratio is 0.05.
`CCC1[C@H](O)CC(=C/C=C2\CCC[C@]3(C)[C@@H]([C@H](C)CCCC(C)(C)O)CC[C@@H]23)C[C@H]1O` (some centres undefined) [listing 2 of 3 here]: the EC50 in the experiment on HL-60 [1] worked out at 12 nM. Further, the “Ca2+ transport” value in the experiment listed under Rattus norvegicus [3] was 3.7. Further, the Activity ratio in the experiment with HL-60 [4] stood at 4.4.
In the case of `CC=C1[C@H](O)CC(=C/C=C2\CCC[C@]3(C)[C@@H]([C@@H](C)CCCC(C)(C)O)CC[C@@H]23)C[C@H]1O` [listing 2 of 3 here], the Serum Ca2+ in the experiment listed under Rattus norvegicus [6] was 12.1 and 5.1; in the experiment filed under Rattus norvegicus [5], 8.2 and 4.4. The ED50 in experiment [8] is 280 pM and 500 pM.
As to `CCC1[C@H](O)CC(=C/C=C2\CCC[C@]3(C)[C@@H]([C@H](C)CCCC(C)(C)O)CC[C@@H]23)C[C@H]1O` (some centres undefined) [listing 3 of 3 here], the EC50 in the experiment on HL-60 [1] came to 0.46 nM. The “Ca2+ transport” value in the experiment listed under Rattus norvegicus [3] is listed as 4. Further, in the experiment on HL-60 [4], the Activity ratio was 0.17.
Consider `CCC1[C@H](O)CC(=C/C=C2\CCC[C@]3(C)[C@@H]([C@@H](C)CCCC(C)(C)O)CC[C@@H]23)C[C@H]1O` (some centres undefined) [listing 3 of 3 here], for which, in the experiment listed under Rattus norvegicus [5], the Serum Ca2+ was found to be 5.6.
As for `CC=C1[C@H](O)CC(=C/C=C2\CCC[C@]3(C)[C@@H]([C@@H](C)CCCC(C)(C)O)CC[C@@H]23)C[C@H]1O` [listing 3 of 3 here], in the experiment with HL-60 [1], the EC50 turned out to be 0.15 nM. The “Ca2+ transport” value in the experiment listed under Rattus norvegicus [2] was 6.7; in the experiment filed under Rattus norvegicus [3], 6.6. The Activity ratio in the experiment on HL-60 [4] is reported as 0.06.

The record behind these values is ChEMBL document CHEMBL1135524, “2-Ethyl and 2-ethylidene analogues of 1alpha,25-dihydroxy-19-norvitamin D(3): synthesis, conformational analysis, biological activities, and docking to the modeled rVDR ligand binding domain” (2002).
